ChEMBL document CHEMBL1201862, “PubChem BioAssay data set” (2004)
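In this assay, cells in 96-well plates receive the compound at five concentrations for 48 hours. Endpoints are linearly interpolated between the surrounding concentrations. At the GI50, growth is halved.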 The source made the active and inactive calls. Rule as the data show it: active = GI50 up to about 1.1 µM and inactive = higher.

Legend:
Test in all cases: NCI anticancer screen, dose series, 48 h
[1] = system: 786-0
[2] = system: A498
[3] = system: CCRF-CEM
[4] = system: EKVX
[5] = system: HCT-15
[6] = system: HL-60
[7] = system: HT-29
[8] = system: K562
[9] = system: LOX IMVI
[10] = system: MCF7
[11] = system: MDA-MB-231
[12] = system: MDA-MB-435
[13] = system: NCI-H460
[14] = system: NCI/ADR-RES
[15] = system: OVCAR-4
[16] = system: RXF 393
[17] = system: SF-295
[18] = system: SNB-19
[19] = system: OVCAR-3
[20] = system: SF-539

Measured: GI50

N=C/N=C/C(=S)O[C@@H]1C(=O)N2CCC[C@@]23CCCC[C@@H]13
> 12.5 µM: [5]
inactive: [1] > 12.5 µM | [2] > 12.5 µM | [3] > 12.5 µM | [4] > 12.5 µM | [6] > 12.5 µM | [7] > 12.5 µM | [8] > 12.5 µM | [9] > 12.5 µM | [10] > 12.5 µM | [11] > 12.5 µM | [12] > 12.5 µM | [13] > 12.5 µM | [14] > 12.5 µM | [15] > 12.5 µM | [16] > 12.5 µM | [17] > 12.5 µM | [18] > 12.5 µM

O=C1CSC(c2ccccc2[N+](=O)[O-])N1c1ccc(-c2ccc(-n3c(-c4ccccc4)nc4ccccc4c3=O)cc2)cc1 (configuration not stated)
74.3 µM: [5]
inactive: [1] > 100 µM | [2] > 100 µM | [3] 46.2 µM | [4] > 100 µM | [6] > 100 µM | [7] 62.2 µM | [8] 67.3 µM | [9] 54 µM | [10] 80.5 µM | [11] > 100 µM | [12] > 100 µM | [13] > 100 µM | [14] 86.5 µM | [19] > 100 µM | [15] 75.5 µM | [17] > 100 µM | [20] 58.6 µM | [18] > 100 µM

CCOC(=O)/C(C#N)=C1\c2c([nH]c(=S)[nH]c2=O)Oc2ccc3ccccc3c21
71.6 µM: [5]
inactive: [1] 53.8 µM | [2] 36.6 µM | [3] 1.55 µM | [4] 22.6 µM | [6] 2.64 µM | [7] 12.4 µM | [8] > 100 µM | [9] > 100 µM | [10] 30.1 µM | [11] 24.8 µM | [12] 43.2 µM | [14] 59.3 µM | [19] 23.7 µM | [15] > 100 µM | [16] 36.2 µM | [17] > 100 µM
active: [13] 0.0857 µM | [18] 0.0887 µM

CC12CC1C(c1cccc([N+](=O)[O-])c1)(c1cccc([N+](=O)[O-])c1)N=N2 (configuration not stated)
20.4 µM: [5]
inactive: [1] 20.7 µM | [2] 4.28 µM | [3] 3.36 µM | [4] 37.7 µM | [6] 13 µM | [7] 28 µM | [8] 29.9 µM | [9] 13.2 µM | [10] 35.6 µM | [11] 16.5 µM | [12] 36.5 µM | [13] 27.4 µM | [14] 22.9 µM | [19] 27.4 µM | [15] 23.1 µM | [17] 57 µM | [20] 25.5 µM | [18] 32.5 µM

CCCC[C@H]1CCN2C[C@@H](O)[C@@H](O)[C@H]2[C@@H]1O
> 100 µM: [5]
inactive: [1] > 100 µM | [2] > 100 µM | [3] > 100 µM | [4] > 100 µM | [6] > 100 µM | [7] > 100 µM | [8] > 100 µM | [9] > 100 µM | [10] > 100 µM | [11] > 100 µM | [12] > 100 µM | [13] > 100 µM | [14] > 100 µM | [19] > 100 µM | [15] > 100 µM | [17] > 100 µM | [20] > 100 µM | [18] > 100 µM

CC(C)(C)OC(=O)N1CCc2[nH][nH]c(=O)c2C1
> 100 µM: [5]
inactive: [1] > 100 µM | [2] > 100 µM | [3] > 100 µM | [4] > 100 µM | [6] > 100 µM | [7] > 100 µM | [8] > 100 µM | [10] > 100 µM | [11] > 100 µM | [12] > 100 µM | [13] > 100 µM | [14] > 100 µM | [19] > 100 µM | [15] > 100 µM | [16] > 100 µM | [17] > 100 µM | [20] > 100 µM | [18] > 100 µM

CC1=CC(=O)N(n2c(-c3ccccc3)n[nH]c2=O)C1=O
inactive: [1] > 100 µM | [3] 43.9 µM | [4] > 100 µM | [6] > 100 µM | [7] > 100 µM | [8] > 100 µM | [9] > 100 µM | [10] > 100 µM | [11] > 100 µM | [12] > 100 µM | [13] > 100 µM | [14] > 100 µM | [19] > 100 µM | [15] > 100 µM | [16] > 100 µM | [17] > 100 µM | [20] > 100 µM | [18] > 100 µM
> 100 µM: [5]
